Common to all, as to assay type: biochemical
Assay [1] concerns the target GuaB (IMP dehydrogenase) (Bacillus subtilis, UniProt P21879). The experiment in a line: kinetic assay with purified GuaB.
For assay [2], the target named is HprT (Bacillus subtilis, UniProt P37472). The experiment in a line: kinetic assay with purified HprT.
The target in assay [3] is Gmk (guanylate kinase) (Bacillus subtilis, UniProt O34328). The assay can be described thus: PK/LDH coupled enzymatic assay with purified Gmk.
Chain of Gmk (guanylate kinase) (O34328 whole entry): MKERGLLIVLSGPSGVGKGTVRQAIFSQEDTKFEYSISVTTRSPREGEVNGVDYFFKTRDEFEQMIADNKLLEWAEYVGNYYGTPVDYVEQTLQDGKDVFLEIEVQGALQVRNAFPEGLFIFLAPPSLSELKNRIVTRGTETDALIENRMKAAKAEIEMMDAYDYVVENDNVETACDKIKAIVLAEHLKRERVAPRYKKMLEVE

Chain of GuaB (IMP dehydrogenase) (P21879 whole entry): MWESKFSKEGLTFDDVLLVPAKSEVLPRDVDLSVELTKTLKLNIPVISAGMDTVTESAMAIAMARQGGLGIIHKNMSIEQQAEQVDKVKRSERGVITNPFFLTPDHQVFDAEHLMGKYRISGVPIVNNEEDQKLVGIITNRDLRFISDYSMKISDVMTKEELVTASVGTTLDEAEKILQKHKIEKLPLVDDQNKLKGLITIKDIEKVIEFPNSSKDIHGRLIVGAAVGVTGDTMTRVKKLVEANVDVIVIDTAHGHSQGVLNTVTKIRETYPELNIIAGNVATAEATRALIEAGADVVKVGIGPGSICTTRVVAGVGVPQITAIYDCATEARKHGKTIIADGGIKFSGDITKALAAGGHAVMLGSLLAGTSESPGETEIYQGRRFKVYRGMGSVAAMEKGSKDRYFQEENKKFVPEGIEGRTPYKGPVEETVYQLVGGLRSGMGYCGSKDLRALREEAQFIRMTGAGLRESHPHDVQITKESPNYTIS
Chain of HprT (P37472 whole entry): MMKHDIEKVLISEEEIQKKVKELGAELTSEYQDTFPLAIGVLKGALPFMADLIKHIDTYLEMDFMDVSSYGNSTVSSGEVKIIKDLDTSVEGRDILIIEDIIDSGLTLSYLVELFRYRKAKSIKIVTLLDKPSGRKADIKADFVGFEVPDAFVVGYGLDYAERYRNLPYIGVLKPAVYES

Turning to `Nc1nc2c(ncn2[C@@H]2O[C@H](COP(=O)(O)OP(=O)(O)O)[C@@H](OP(=O)(O)OP(=O)(O)O)[C@H]2O)c(=O)[nH]1` [ppGpp], the IC50 in assay [1] was around 500 µM; in assay [2] it was around 11 µM; in assay [3], around 20 µM.
With `Nc1nc2c(ncn2[C@@H]2O[C@H](COP(=O)(O)OP(=O)(O)OP(=O)(O)O)[C@@H](OP(=O)(O)OP(=O)(O)O)[C@H]2O)c(=O)[nH]1` [pppGpp], the IC50 was around 300 µM in assay [1], around 11 µM in assay [2] and around 20 µM in assay [3].

The values above are taken from publication PMC3483369 (Molecular cell, 2012).
